# Experimental data: US8513484B2, “Fish cancer model” (Temasek Life Sciences Laboratory Limited, priority 2005, dated 2013)
# Assays:
# [1] = system: EGFP-positive cells of embryos injected with EGFP-zK-rasB(V12) construct; test: Drug tests on zebrafish embryos injected with EGFP-zK-rasB(V12) construct (neoplastic transformation of EGFP-positive cells); assay type: in vivo; conditions: for Effects: preliminary screen; for specific effect on the EGFP-positive cells: 1 μg/ml; for effect on the transformed cells: 3 μg/ml
# Protocol: 5-10 pg of plasmid DNA were injected into zebrafish embryos at the 1-2-cell stage. The actual concentration of DNA was empirically adjusted to produce 50% embryo survival rate.
# A SMZ1500 Stereoscopic Zoom Microscope (Nikon) equipped with the epi-fluorescence attachment and DXM1200F digital camera (Nikon) with original software was used for image analysis.
# [2] = system: developing embryo; test: Toxicity of drugs for the developing embryo; assay type: in vivo, zebrafish
# Protocol: Drugs from BIOMOL® ICCB Known Bioactives Library Cat #2840 were used for drug tests. Drugs were diluted in standard fish water from the 5-mg/ml DMSO stock solutions. The injected embryos were sorted at 8 hours post fertilization (hpf) and the normally developing were selected for drug treatment. Ten to fifteen embryos per well were plated into 24-well microtiter plate and overlayed with 1.5 ml drug solution at 10 hpf. Embryos were incubated in the dark at 28° C. The results were observed every day until 5 days post fertilization (dpf).
# To evaluate feasibility of the model for drug discovery, a mini-screening was performed using selected compounds from BIOMOL® ICCB Known Bioactives Library. The embryos injected with EGFP-zK-rasB(V12) construct were treated with various drugs in 24-well microtiter plates. The drugs were administered into the standard fish water starting at 10 hpf. Concentration of drugs was proposed based on data from a preliminary screening for developmental toxicity.
# [3] = system: E-cadherin-mediated cell adhesion system; conditions: by restoring E-cadherin-mediated cell adhesion system; Nam et al., 2002; cited from earlier work
# [4] = 10 μg/ml in fish water from 10 hpf
# [5] = 3 μg/ml in fish water from 10 hpf
smiles,measurement,setting,value
O=C1Nc2ccc(I)cc2/C1=C/c1cc(Br)c(O)c(Br)c1 [GW-5074],Effects,[1]; 1 μg/ml in fish water from 10 hpf,"Cytotoxic, non-specific effects"
"CC[C@H](C)[C@@H](CO[C@@H](Cc1ccccc1)C(=O)N[C@@H](CCS(C)(=O)=O)C(=O)OC(C)C)NC[C@@H](N)CS [L-744,832]",Effects,[1]; [4],NO
O=c1cc(N2CCOCC2)oc2c(-c3ccccc3)cccc12 [LY294002],Effects,[1]; [5],NO
CC[C@H](C)C(=O)O[C@H]1C[C@@H](C)C=C2C=C[C@H](C)[C@H](CC[C@@H]3C[C@@H](O)CC(=O)O3)[C@H]21 [Lovastatin],Effects,[1]; 0.003 μg/ml in fish water from 10 hpf,"Cytotoxic, non-specific effects"
CCCC[C@@H](C)/C=C(C)/C=C(\C)C(=O)NC1=C[C@@](O)(/C=C/C=C/C=C/C(=O)NC2=C(O)CCC2=O)[C@@H]2O[C@@H]2C1=O [Manumycin A],Effects,[1]; [5],NO
COc1cccc(-c2cc(=O)c3ccccc3o2)c1N [PD98059],concentration at which toxic effects on development become serious,"[2]; zebrafish, in vivo",10 ng/mL
same,growth of the EGFP-positive cells,[1]; 3 ng/ml,strongly impairs growth
same,shape and attachment of EGFP-positive cells,"[1]; 3 ng/ml, by 72 hpf","smaller, maintain flat shape and remain attached to the embryo"
same,Effects,[1]; [5],preserves the epithelial
Cc1ccc(-c2nn(C(C)(C)C)c3ncnc(N)c23)cc1 [PP1],toxicity for developing embryo,[2]; 1 μg/ml,tolerable
same,toxicity for developing embryo,[2]; 3 μg/ml,toxic
same,specific effect on the EGFP-positive cells,[1],considerably reduced
same,effect on the transformed cells,[1],maintained flat shape while continued to grow
same,Effects,[1]; [5],Keeps cells flat and attached
CC(C)(C)n1nc(-c2ccc(Cl)cc2)c2c(N)ncnc21 [PP2],toxicity for developing embryo,[2]; 1 μg/ml,tolerable
same,toxicity for developing embryo,[2]; 3 μg/ml,toxic
same,specific effect on the EGFP-positive cells,[1],considerably reduced
same,effect on the transformed cells,[1],maintained flat shape while continued to grow
same,Effects,[1]; [5],Keeps cells flat and attached
same,metastatic spread of cancer,[3],reduced metastatic spread of cancer
Cc1ccc(NC(=O)c2cccc(N(C)C)c2)cc1NC(=O)c1ccc(O)cc1 [ZM336372],Effects,[1]; [4],NO
